Experimental data reported in PubChem BioAssay (NCI).
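Cells were grown in 96-well plates and exposed to each compound for 48 hours at five concentrations; endpoints were interpolated linearly between bracketing concentrations, or set to the highest concentration if not reached. TGI: total growth inhibition.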

Columns and labels:
Assay in all cases: NCI tumour cell line growth inhibition, 48 h
[1] = system: SK-OV-3 ovarian
[2] = system: UACC-62 melanoma
[3] = system: DLD-1 colon
[4] = system: RXF 393 renal
[5] = system: OVCAR-4 ovarian
[6] = system: HCC-2998 colon
[7] = system: KM12 colon
[8] = system: HCT-15 colon
[9] = system: K-562 leukemia
[10] = system: CCRF-CEM leukemia
[11] = system: RXF-631 renal
[12] = system: HOP-62 NSCLC
[13] = system: NCI-H522 lung
[14] = system: M14 melanoma
[15] = system: UO-31 renal
[16] = system: HT29 colon
[17] = system: TK-10 renal
[18] = system: MOLT-4 leukemia
[19] = system: UACC-257 melanoma
[20] = system: RPMI-8226 leukemia
[21] = system: KM20L2 colon
[22] = system: 786-0 renal
[23] = system: NCI-H460 lung
[24] = system: A498 renal
[25] = system: EKVX NSCLC
[26] = system: ACHN renal
[27] = system: DMS 114 small cell lung
[28] = system: OVCAR-5 ovarian
[29] = system: M19-MEL melanoma
[30] = system: SF-539 CNS
[31] = system: SNB-75 CNS
[32] = system: OVCAR-3 ovarian
[33] = system: SF-268 CNS
[34] = system: XF 498 CNS
[35] = system: OVCAR-8 ovarian
[36] = system: U251 CNS
[37] = system: NCI-H23 lung
[38] = system: MALME-3M melanoma
[39] = system: SNB-19 CNS
[40] = system: SF-295 CNS
[41] = system: SK-MEL-28 melanoma
[42] = system: HCT-116 colon
[43] = system: SN12C renal
[44] = system: SR leukemia
[45] = system: SNB-78 CNS
[46] = system: LOX IMVI melanoma
[47] = system: LXFL 529 NSCLC
[48] = system: A549 NSCLC
[49] = system: SK-MEL-2 melanoma
[50] = system: CAKI-1 renal
[51] = system: HL-60(TB) leukemia
[52] = system: COLO 205 colon
[53] = system: IGROV1 ovarian
[54] = system: SK-MEL-5 melanoma
[55] = system: NCI-H226 lung
[56] = system: SW-620 colon
[57] = system: HOP-92 NSCLC
[58] = system: DMS 273 small cell lung

Measured: TGI

OCC(O)C(OC1OC(CO)C(O)C(O)C1O)c1nn(-c2ccc(Cl)cc2)c2nc3cc(Cl)ccc3nc12 (centres undefined)
not listed: [48] | [49] | [50] | [51] | [52] | [53] | [54] | [55] | [56] | [57] | [58]
> 100 µM: all other assays above

N#CCCn1c(CCC(=O)Nc2ccc(Cl)cc2Cl)n[nH]c1=S
not listed: [25]
> 100 µM: all other assays above
